Assay results taken from patent publication US20260115189A1, “Combination Treatment Regimens - SMARCA2 Degrader With Taxane Anticancer Agent” (PRELUDE THERAPEUTICS INCORPORATED, priority 2023, published 2026).
“Also recorded” adds a separate entry of the source. Where two headings read alike, the source gives them in different places.

How the values were obtained:
SMARCA2 protein = molecular target: T1, SMARCA2 protein (Homo sapiens, UniProt P51531); test: Semi-quantitative western blot of SMARCA2 in tumor tissue; type: in vivo, mouse xenograft; conditions: for tumor SMARCA2 protein levels: repeat administration, Formula (I) 100-200 mg/kg s.c. Q3D, over a 24 h period, docetaxel 5-20 mg/kg i.v. QW; for tumor SMARCA2 protein levels relative to vehicle treated mice: tumors collected 4 hr and 24 hr post final dosing, Formula (I) 100 mg/kg s.c. Q3D, docetaxel 10/5 mg/kg i.v. QW
T1 construct: from tissue; host or cells: Frozen xenograft tumor tissue from human lung cancer cells (NCI-H838, A549 or Calu-6) grown subcutaneously in mice
T1 sequence (P51531 whole entry): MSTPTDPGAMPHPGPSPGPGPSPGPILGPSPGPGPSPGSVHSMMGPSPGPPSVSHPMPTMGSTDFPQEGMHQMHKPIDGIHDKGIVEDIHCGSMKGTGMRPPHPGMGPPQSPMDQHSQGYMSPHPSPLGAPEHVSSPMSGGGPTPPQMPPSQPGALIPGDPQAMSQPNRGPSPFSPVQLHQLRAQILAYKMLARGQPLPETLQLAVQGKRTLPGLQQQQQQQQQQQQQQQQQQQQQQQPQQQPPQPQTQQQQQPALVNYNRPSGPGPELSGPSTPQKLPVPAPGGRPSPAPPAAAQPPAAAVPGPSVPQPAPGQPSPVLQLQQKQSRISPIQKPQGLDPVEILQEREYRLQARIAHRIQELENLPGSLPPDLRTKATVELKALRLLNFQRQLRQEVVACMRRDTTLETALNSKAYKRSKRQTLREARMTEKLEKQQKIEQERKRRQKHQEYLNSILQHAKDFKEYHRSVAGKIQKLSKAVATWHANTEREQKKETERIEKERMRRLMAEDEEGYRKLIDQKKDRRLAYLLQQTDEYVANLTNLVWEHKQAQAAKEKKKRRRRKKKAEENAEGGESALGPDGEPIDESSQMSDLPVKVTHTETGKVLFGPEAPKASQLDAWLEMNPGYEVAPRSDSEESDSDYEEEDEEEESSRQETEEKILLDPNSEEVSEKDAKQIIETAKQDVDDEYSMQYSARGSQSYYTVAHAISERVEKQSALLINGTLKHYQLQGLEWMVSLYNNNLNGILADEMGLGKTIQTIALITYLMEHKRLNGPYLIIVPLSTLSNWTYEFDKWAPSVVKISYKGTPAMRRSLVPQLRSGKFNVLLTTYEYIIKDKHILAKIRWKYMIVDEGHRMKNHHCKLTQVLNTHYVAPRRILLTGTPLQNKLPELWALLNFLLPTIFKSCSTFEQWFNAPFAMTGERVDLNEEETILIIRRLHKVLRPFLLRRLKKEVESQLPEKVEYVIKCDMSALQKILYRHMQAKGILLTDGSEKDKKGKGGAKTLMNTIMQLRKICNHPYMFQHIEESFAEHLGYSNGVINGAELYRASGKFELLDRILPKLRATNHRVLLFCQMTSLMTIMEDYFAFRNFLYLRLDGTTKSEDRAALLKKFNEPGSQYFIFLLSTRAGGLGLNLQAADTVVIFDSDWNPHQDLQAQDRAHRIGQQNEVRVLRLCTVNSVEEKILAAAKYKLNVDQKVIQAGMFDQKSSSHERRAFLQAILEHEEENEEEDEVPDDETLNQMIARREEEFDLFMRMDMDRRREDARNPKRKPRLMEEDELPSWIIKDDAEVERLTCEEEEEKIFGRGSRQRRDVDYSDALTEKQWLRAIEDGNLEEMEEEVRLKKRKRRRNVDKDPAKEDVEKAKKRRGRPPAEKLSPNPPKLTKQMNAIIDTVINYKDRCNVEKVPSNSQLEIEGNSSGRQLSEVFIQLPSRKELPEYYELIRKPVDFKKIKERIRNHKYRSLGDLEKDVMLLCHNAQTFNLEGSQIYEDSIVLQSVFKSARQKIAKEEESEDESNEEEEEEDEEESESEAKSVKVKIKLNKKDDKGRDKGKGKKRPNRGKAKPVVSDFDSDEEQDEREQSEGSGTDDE
Method: SMARCA2 protein expression was measured by semi-quantitative western blot following extraction of protein from frozen tumor tissue. Up to 50 mg of frozen tumor tissue was measured and placed into 0.5 mL conical tubes containing 0.5 mm ceramic beads and 400 μL RIPA buffer containing 1× protease and phosphatase inhibitors (ThermoFisher Scientific, A32959) and PMSF (Cell Signaling Technology, #8553). Tissues were homogenized with a Bead Ruptor Elite at a speed of 5 m/sec for 25 seconds and centrifuged at 12,000 rpm for 3 min at 4° C. Milling and centrifugation steps were performed two additional times before transferring supernatant to UltraFree 0.45 μm 0.5 mL filter columns (Millipore Sigma, #UFC30HV) and centrifuging at 12,000 rpm for 1 min. Flow through lysate was quantified by BCA assay, diluted with 1 volume of RIPA lysis buffer, and mixed with Laemmli sample buffer. Lysates were boiled at 95° C. for 5 min and 30 μg of protein was loaded in 4-20% Criterion TGX Precast Midi Protein Gels (BioRad, #5671095). Protein was transferred to PVDF membranes by Trans-Blot Turbo system (Bio-Rad) and probed with Actin (Signma, #A2228) and SMARCA2 (Cell Signaling Technology, #11966) primary antibodies at a 1:1000 dilution and IRDye 800CW or IRDye 680RD secondary antibodies (LICOR, antibody, #926-68070) in iBind automated western system (ThermoFisher Scientific). The stained blots were scanned by LiCOR Odyssey CLx imaging system to acquire integrated intensities at 700 nm and 800 nm channel and analyzed using Image Studio software v5.2.

[1] = tested on: SMARCA4-deficient A549 Lung Cancer Xenograft; conditions: for Tumor size: day 28, mean ± SEM
Method: (§1) As used herein, tumor growth inhibition is calculated as follows: Mean % Inhibition=(mean(C)−mean(T))/mean(C)*100%, wherein C is the tumor volume in the control arm, and T is the tumor volume in the treatment arm.
(§2) The A549 tumor cells were maintained in vitro with Ham's F12K medium supplemented with 10% fetal bovine serum at 37° C. in an atmosphere of 5% CO2 in air. The cells in exponential growth phase were harvested and quantitated by cell counter before tumor inoculation. BALB/c nude female mice were inoculated subcutaneously in the right front flank region with A549 tumor cells (5×10^6) in 0.1 ml of PBS for tumor development. The randomization was performed when the mean tumor size reaches approximately 100-150 mm^3.
(§3) Tumor volumes at the end of studies were evaluated by the Mann-Whitney test (unpaired, nonparametric test). * P<0.05 […], *** P<0.001 versus vehicle are shown in graphs.

[2] = tested on: SMARCA4-WT Calu-6 Lung Cancer Xenograft; conditions: for Tumor size: day 21, mean ± SEM; for Tumor size / TGI (tumor growth inhibition vs vehicle): Formula (I) 100 mg/kg Q3D, docetaxel 5/10 mg/kg QW, combination 100 + 5/10 mg/kg Q3D + QW; for TGI (tumor growth inhibition vs vehicle): day 21
Method: as §1
as §2, with “Calu-6” for “A549”, “MEM” for “Ham's F12K”
as §3

[3] = tested on: SMARCA4-deficient NCI-H838 Lung Cancer Xenograft; conditions: for Tumor size: day 20, mean ± SEM; for Tumor size / TGI (tumor growth inhibition vs vehicle): combination of both regimens; for TGI (tumor growth inhibition vs vehicle): day 20
Method: as §1
as §2, with “NCI-H838-#5” for “A549”, “RPMI1640” for “Ham's F12K”, “NOD-SCID” for “BALB/c nude”, “PBS mixed with Matrigel (1:1)” for “PBS”
as §3

[4] = tested on: NCI-H838 cells (SMARCA4-del NSCLC cell line); test: Cell cycle analysis by flow cytometry (EdU / DRAQ5); type: cell-based, human; conditions: NCI-H838, single agent, 48 hrs
Method: Cells were seeded, incubated overnight, and dosed with drug treatments the next day. 2 hours before collection, cells were incubated with 10 μM EdU at 37 C then harvested using trypsin EDTA and washed with PBS/1% BSA. 4% PFA was added to the cells followed by a 15 minute incubation at RT. Cell were washed again with PBS/1% BSA and resuspended in 1X Click-iT® saponin-based permeabilization reagent for 15-minutes. Following centrifugation, supernatant was removed, and cells were incubated for 30 mins at RT, protected from light, in Click-iT® reaction cocktail, which was prepared according to manufacturer's instructions. Cells were then washed once with 0.01% Triton in PBS and resuspended in PBS. DRAQ5™ was added to cells at 1:200 dilution, incubated at room temperature, preventing exposure to light, for 30-60 min. Lastly, cells were washed with PBS/1% BSA and resuspended in 400 μl PBS/1% BSA. EdU with Pacific Blue™ azide and was detected using 405 nm excitation with a violet emission filter (450/50 nm) on a flow cytometer and analyzed using FlowJo software.
The combination effects of Formula (I) and docetaxel on the cell cycle was analyzed in a SMARCA4-deficient NSCLC lung cancer cell line by flow cytometry using DraQ5 and Click-iT EdU Pacific Blue. […]

[5] = tested on: SMARCA4-mutated cancer cell lines; test: Cell cycle arrest in SMARCA4-mutated cancer cell lines; type: cell-based
[6] = tested on: SMARCA4-mutated NCI-H838 tumor tissues; test: RNA-sequencing and Gene Set Enrichment Analysis of treated tumor tissues; type: in vivo; conditions: NCI-H838 tumor tissues treated for one week
Method: To elucidate the mechanism of action for the combination effects observed in vivo, RNA-sequencing was conducted on SMARCA4-mutated NCI-H838 tumor tissues treated with Formula (I) and/or docetaxel for one week.

[7] = tested on: SMARCA4 wild-type cell lines; test: Cell cycle arrest in SMARCA4 wild-type cell lines; type: cell-based
[8] = as printed in text: Formula (I) 200 mg/kg s.c. Q3D, docetaxel 5-20 mg/kg i.v. QW, combination Formula (I) 100 mg/kg s.c. Q3D + docetaxel 5-20 mg/kg i.v. QW
[9] = Formula (I) 100 mg/kg s.c. Q3D, docetaxel 5/10/20 mg/kg QW, combination 200 + 5/10/20 mg/kg Q3D + QW
[10] = day 28, Formula (I) 100 mg/kg s.c. Q3D, docetaxel 5/10/20 mg/kg QW, combination 200 + 5/10/20 mg/kg Q3D + QW
[11] = Formula (I) 100 mg/kg s.c. Q3D, docetaxel 10/5 mg/kg i.v. QW

SMILES	tumor SMARCA2 protein levels (SMARCA2 protein)	tumor SMARCA2 protein levels relative to vehicle treated mice (SMARCA2 protein)	TGI (tumor growth inhibition vs vehicle) [1, 8] [%]	Tumor size [1, 9]	TGI (tumor growth inhibition vs vehicle) [1, 10]	Tumor size [2]	TGI (tumor growth inhibition vs vehicle) [2]	Tumor size [3, 11] [mm^3]	TGI (tumor growth inhibition vs vehicle) [3, 11]	TGI (tumor growth inhibition vs vehicle) ([3]; Formula (I) 100 mg/kg s.c. Q3D, docetaxel 10/5 mg/kg i.v. QW, listed as docetaxel) [%]	cell cycle arrest [4]	cell cycle arrest [5]	Gene Set Enrichment Analysis: E2F targets and G2/M pathways [6]	G1 cell cycle arrest [7]	tolerability (morbidity, body weight) ([1]; Formula (I) s.c. Q3D, docetaxel 5-20 mg/kg i.v. QW, combination)	tolerability (morbidity, body weight) ([2]; Formula (I) 100 mg/kg s.c. Q3D, docetaxel 5/10 mg/kg i.v. QW, combination)	growth of SMARCA4 WT Calu-6 lung tumor xenografts ([2]; Formula (I) at efficacious dosing regimens)	tolerability (morbidity, body weight) ([3]; Formula (I) 100 mg/kg s.c. Q3D, docetaxel 10/5 mg/kg i.v. QW, combination of both, one Formula (I) dosing holiday on day 12 in combination)	tolerability (morbidity, body weight) ([3]; single agents: Formula (I) 50 or 75 mg/kg i.v. QW, nab-paclitaxel 30 mg/kg i.v. Q3W)
CC(=O)O[C@@]12CO[C@@H]1C[C@H](O)[C@@]1(C)C(=O)[C@H](O)C3=C(C)[C@@H](OC(=O)[C@H](O)[C@@H](NC(=O)OC(C)(C)C)c4ccccc4)C[C@@](O)([C@@H](OC(=O)c4ccccc4)[C@H]21)C3(C)C [Docetaxel, reference compound]	no effect	no effect; also recorded: unaffected	13	2,223 ± 300 mm^3	13.3% (day	1,338 ± 132 mm^3	37.6% (day	971.86 ± 127.82	55.0% (day	55	dose dependent G2/M arrest signal	induced G2/M arrest	positive enrichment of E2F targets and G2/M pathways	–	–	–	–	–	–
Cc1ncsc1-c1ccc([C@H](C)NC(=O)[C@@H]2C[C@@H](O)CN2C(=O)[C@@H](c2cc(O[C@@H](C)CN3CC[C@@H](N4CCN5c6cc(-c7ccccc7O)nnc6NC[C@H]5C4)C3)no2)C(C)C)cc1 [Formula (I)]	complete reduction	significantly decreased; also recorded: abolished	32	1,785 ± 221 mm^3	31.6% (day	1,535 ± 174 mm^3	27.2% (day	590.46 ± 102.37	–	–	dose dependent G1 arrest signal	induced G1 cell cycle arrest	downregulating E2F targets and G2/M pathways	not in SMARCA4 wild-type cell lines	well tolerated	well tolerated	did not inhibit the growth	well tolerated	well tolerated
